Results from ChEMBL document CHEMBL1275492, “In vitro activity of ceftobiprole against pathogens from two phase 3 clinical trials of complicated skin and skin structure infections” (2008).
≈ marks a conversion by molar mass, not a printed value.

Experiments:
Assay type in all cases: functional
Pseudomonas aeruginosa = assay: Antibacterial activity against Pseudomonas aeruginosa obtained from complicated skin and skin structure infections by agar dilution method
Acinetobacter baumannii = assay: Antibacterial activity against Acinetobacter baumannii obtained from complicated skin and skin structure infections by agar dilution method
Pseudomonas fluorescens = assay: Antibacterial activity against Pseudomonas fluorescens obtained from complicated skin and skin structure infections by agar dilution method
[1] = tested on: Stenotrophomonas maltophilia; assay: Antibacterial activity against Stenotrophomonas maltophilia obtained from complicated skin and skin structure infections by agar dilution method
Klebsiella aerogenes = assay: Antibacterial activity against Enterobacter aerogenes obtained from complicated skin and skin structure infections by agar dilution method
Klebsiella oxytoca = assay: Antibacterial activity against Klebsiella oxytoca obtained from complicated skin and skin structure infections by agar dilution method
Enterococcus faecalis = assay: Antibacterial activity against Enterococcus faecalis obtained from complicated skin and skin structure infections by agar dilution method
Streptococcus agalactiae = assay: Antibacterial activity against Streptococcus agalactiae obtained from complicated skin and skin structure infections by agar dilution method
Streptococcus pyogenes = assay: Antibacterial activity against Streptococcus pyogenes obtained from complicated skin and skin structure infections by agar dilution method
[2] = Antibacterial activity against Streptococcus sp. 'group C' obtained from complicated skin and skin structure infections by agar dilution method
[3] = Antibacterial activity against Streptococcus sp. 'group G' obtained from complicated skin and skin structure infections by agar dilution method
[4] = tested on: Streptococcus constellatus; assay: Antibacterial activity against Streptococcus constellatus obtained from complicated skin and skin structure infections by agar dilution method
Streptococcus mitis = assay: Antibacterial activity against Streptococcus mitis obtained from complicated skin and skin structure infections by agar dilution method
[5] = tested on: Staphylococcus intermedius; assay: Antibacterial activity against Staphylococcus intermedius obtained from complicated skin and skin structure infections by agar dilution method
Aerococcus viridans = assay: Antibacterial activity against Aerococcus viridans obtained from complicated skin and skin structure infections by agar dilution method
Bacillus = assay: Antibacterial activity against Bacillus spp. obtained from complicated skin and skin structure infections by agar dilution method
Gemella morbillorum = assay: Antibacterial activity against Gemella morbillorum obtained from complicated skin and skin structure infections […]
Gemella = assay: Antibacterial activity against Gemella spp. obtained from complicated skin and skin structure infections by agar dilution method
Lactococcus lactis = assay: Antibacterial activity against Lactococcus lactis obtained from complicated skin and skin structure infections by agar dilution method
Micrococcus = assay: Antibacterial activity against Micrococcus spp. obtained from complicated skin and skin structure infections by agar dilution method
Citrobacter braakii = assay: Antibacterial activity against Citrobacter braakii obtained from complicated skin and skin structure infections by agar dilution method
Citrobacter freundii = assay: Antibacterial activity against Citrobacter freundii obtained from complicated skin and skin structure infections by agar dilution method
Enterobacter amnigenus = assay: Antibacterial activity against Enterobacter amnigenus obtained from complicated skin and skin structure infections by agar dilution method; details: Lelliottia amnigena
Enterobacter cloacae = assay: Antibacterial activity against Enterobacter cloacae obtained from complicated skin and skin structure infections by agar dilution method
Escherichia coli = assay: Antibacterial activity against Escherichia coli obtained from complicated skin and skin structure infections by agar dilution method
Klebsiella pneumoniae = assay: Antibacterial activity against Klebsiella pneumoniae obtained from complicated skin and skin structure infections by agar dilution method
Morganella morganii = assay: Antibacterial activity against Morganella morganii obtained from complicated skin and skin structure infections by agar dilution method
Proteus mirabilis = assay: Antibacterial activity against Proteus mirabilis obtained from complicated skin and skin structure infections by agar dilution method
Proteus penneri = assay: Antibacterial activity against Proteus penneri obtained from complicated skin and skin structure infections by agar dilution method
Proteus vulgaris = assay: Antibacterial activity against Proteus vulgaris obtained from complicated skin and skin structure infections by agar dilution method
Providencia stuartii = assay: Antibacterial activity against Providencia stuartii obtained from complicated skin and skin structure infections by agar dilution method
Salmonella = assay: Antibacterial activity against Salmonella spp. obtained from complicated skin and skin structure infections by agar dilution method
Serratia marcescens = assay: Antibacterial activity against Serratia marcescens obtained from complicated skin and skin structure infections by agar dilution method
Enterococcus faecium = assay: Antibacterial activity against Enterococcus faecium obtained from complicated skin and skin structure infections by agar dilution method

CC(C)(O/N=C(\C(=O)N[C@@H]1C(=O)N2C(C(=O)[O-])=C(C[n+]3ccccc3)CS[C@H]12)c1csc(N)n1)C(=O)O [CEFTAZIDIME]
MIC50 (Pseudomonas aeruginosa): 2 µg/mL (≈ 3.66 µM) | MIC90 (Pseudomonas aeruginosa): > 128 µg/mL | MIC50 (Acinetobacter baumannii): > 16 µg/mL | MIC90 (Acinetobacter baumannii): > 128 µg/mL | MIC50 (Pseudomonas fluorescens): > 16 µg/mL | MIC90 (Pseudomonas fluorescens): > 128 µg/mL | MIC50 [1]: > 16 µg/mL | MIC90 [1]: > 128 µg/mL | MIC50 (Klebsiella aerogenes): 0.12 µg/mL (≈ 0.22 µM) | MIC90 (Klebsiella aerogenes): 16 µg/mL (≈ 29.3 µM) | MIC50 (Klebsiella oxytoca): 0.12 µg/mL (≈ 0.22 µM) | MIC90 (Klebsiella oxytoca): 16 µg/mL (≈ 29.3 µM) | MIC50 (Enterococcus faecalis): > 128 µg/mL | MIC90 (Enterococcus faecalis): > 128 µg/mL | MIC50 (Streptococcus agalactiae): 0.5 µg/mL (≈ 0.915 µM) | MIC90 (Streptococcus agalactiae): 1 µg/mL (≈ 1.83 µM) | MIC50 (Streptococcus pyogenes): 0.12 µg/mL (≈ 0.22 µM) | MIC90 (Streptococcus pyogenes): 0.12 µg/mL (≈ 0.22 µM) | MIC50 [2]: 0.5 µg/mL (≈ 0.915 µM) | MIC90 [2]: 4 µg/mL (≈ 7.32 µM) | MIC50 [3]: 0.25 µg/mL (≈ 0.457 µM) | MIC90 [3]: 0.25 µg/mL (≈ 0.457 µM) | MIC50 [4]: 2 µg/mL (≈ 3.66 µM) | MIC90 [4]: 4 µg/mL (≈ 7.32 µM) | MIC50 (Streptococcus mitis): 0.12 µg/mL (≈ 0.22 µM) | MIC90 (Streptococcus mitis): 0.25 µg/mL (≈ 0.457 µM) | MIC50 [5]: 0.12 µg/mL (≈ 0.22 µM) | MIC90 [5]: 0.25 µg/mL (≈ 0.457 µM) | MIC50 (Aerococcus viridans): 1 µg/mL (≈ 1.83 µM) | MIC90 (Aerococcus viridans): 64 µg/mL (≈ 117 µM) | MIC50 (Bacillus): 1 µg/mL (≈ 1.83 µM) | MIC90 (Bacillus): 64 µg/mL (≈ 117 µM) | MIC50 (Gemella morbillorum): 1 µg/mL (≈ 1.83 µM) | MIC90 (Gemella morbillorum): 64 µg/mL (≈ 117 µM) | MIC50 (Gemella): 1 µg/mL (≈ 1.83 µM) | MIC90 (Gemella): 64 µg/mL (≈ 117 µM) | MIC50 (Lactococcus lactis): 1 µg/mL (≈ 1.83 µM) | MIC90 (Lactococcus lactis): 64 µg/mL (≈ 117 µM) | MIC50 (Micrococcus): 1 µg/mL (≈ 1.83 µM) | MIC90 (Micrococcus): 64 µg/mL (≈ 117 µM) | MIC50 (Citrobacter braakii): 0.12 µg/mL (≈ 0.22 µM) | MIC90 (Citrobacter braakii): 16 µg/mL (≈ 29.3 µM) | MIC50 (Citrobacter freundii): 0.12 µg/mL (≈ 0.22 µM) | MIC90 (Citrobacter freundii): 16 µg/mL (≈ 29.3 µM) | MIC50 (Enterobacter amnigenus): 0.12 µg/mL (≈ 0.22 µM) | MIC90 (Enterobacter amnigenus): 16 µg/mL (≈ 29.3 µM) | MIC50 (Enterobacter cloacae): 0.25 µg/mL (≈ 0.457 µM) | MIC90 (Enterobacter cloacae): 64 µg/mL (≈ 117 µM) | MIC50 (Escherichia coli): 0.12 µg/mL (≈ 0.22 µM) | MIC90 (Escherichia coli): 0.25 µg/mL (≈ 0.457 µM) | MIC50 (Klebsiella pneumoniae): 0.12 µg/mL (≈ 0.22 µM) | MIC90 (Klebsiella pneumoniae): 64 µg/mL (≈ 117 µM) | MIC50 (Morganella morganii): ≤ 0.12 µg/mL | MIC90 (Morganella morganii): 8 µg/mL (≈ 14.6 µM) | MIC50 (Proteus mirabilis): 0.06 µg/mL (≈ 0.11 µM) | MIC90 (Proteus mirabilis): 2 µg/mL (≈ 3.66 µM) | MIC50 (Proteus penneri): 0.12 µg/mL (≈ 0.22 µM) | MIC90 (Proteus penneri): 16 µg/mL (≈ 29.3 µM) | MIC50 (Proteus vulgaris): 0.12 µg/mL (≈ 0.22 µM) | MIC90 (Proteus vulgaris): 16 µg/mL (≈ 29.3 µM) | MIC50 (Providencia stuartii): 0.12 µg/mL (≈ 0.22 µM) | MIC90 (Providencia stuartii): 16 µg/mL (≈ 29.3 µM) | MIC50 (Salmonella): 0.12 µg/mL (≈ 0.22 µM) | MIC90 (Salmonella): 16 µg/mL (≈ 29.3 µM) | MIC50 (Serratia marcescens): 0.12 µg/mL (≈ 0.22 µM) | MIC90 (Serratia marcescens): 16 µg/mL (≈ 29.3 µM)

CC1(C)S[C@@H]2[C@H](NC(=O)Cc3ccccc3)C(=O)N2[C@H]1C(=O)O [PENICILLIN G]
MIC (Enterococcus faecalis): 2 µg/mL (≈ 5.98 µM) | MIC50 (Enterococcus faecalis): 2 µg/mL (≈ 5.98 µM) | MIC90 (Enterococcus faecalis): 4 µg/mL (≈ 12 µM) | MIC (Enterococcus faecium): > 4 µg/mL | MIC50 (Enterococcus faecium): > 4 µg/mL | MIC50 (Streptococcus agalactiae): 0.06 µg/mL (≈ 0.179 µM) | MIC90 (Streptococcus agalactiae): 0.06 µg/mL (≈ 0.179 µM) | MIC (Streptococcus pyogenes): ≤ 0.03 µg/mL | MIC50 (Streptococcus pyogenes): ≤ 0.03 µg/mL | MIC90 (Streptococcus pyogenes): ≤ 0.03 µg/mL | MIC [2]: ≤ 0.03 µg/mL | MIC50 [2]: ≤ 0.03 µg/mL | MIC90 [2]: 0.06 µg/mL (≈ 0.179 µM) | MIC [3]: ≤ 0.03 µg/mL | MIC50 [3]: ≤ 0.03 µg/mL | MIC90 [3]: ≤ 0.03 µg/mL | MIC [4]: ≤ 0.03 µg/mL | MIC50 [4]: ≤ 0.03 µg/mL | MIC90 [4]: 0.12 µg/mL (≈ 0.359 µM) | MIC50 (Streptococcus mitis): 0.5 µg/mL (≈ 1.5 µM) | MIC90 (Streptococcus mitis): 0.5 µg/mL (≈ 1.5 µM) | MIC50 [5]: 0.5 µg/mL (≈ 1.5 µM) | MIC90 [5]: 0.5 µg/mL (≈ 1.5 µM) | MIC50 (Aerococcus viridans): ≤ 0.03 µg/mL | MIC90 (Aerococcus viridans): 1 µg/mL (≈ 2.99 µM) | MIC50 (Bacillus): ≤ 0.03 µg/mL | MIC90 (Bacillus): 1 µg/mL (≈ 2.99 µM) | MIC50 (Gemella morbillorum): ≤ 0.03 µg/mL | MIC90 (Gemella morbillorum): 1 µg/mL (≈ 2.99 µM) | MIC50 (Gemella): ≤ 0.03 µg/mL | MIC90 (Gemella): 1 µg/mL (≈ 2.99 µM) | MIC50 (Lactococcus lactis): ≤ 0.03 µg/mL | MIC90 (Lactococcus lactis): 1 µg/mL (≈ 2.99 µM) | MIC50 (Micrococcus): ≤ 0.03 µg/mL | MIC90 (Micrococcus): 1 µg/mL (≈ 2.99 µM)
